From patent publication US8658357B2, “Orotate transporter encoding marker genes” (Novozymes A/S, priority 2004, dated 2014) come the findings set out here.

In one assay the test system is E. coli XL1-Blue. Nature of the assay: Screening for fluoroorotate sensitivity by streaking on ABTG plates. In kind it is cell-based, Escherichia coli. On the procedure: QIAGEN™-purified plasmid DNA of pED301 (ysbC), or pDG268 (negative control) was introduced into competent XL1-Blue cells by the heat shock procedure, and transformants harboring plasmid pED301 or pDG268 were selected at 37° C. on LB plates supplemented with 100 micro-g/ml ampicillin. Transformants were screened for fluoroorotate sensitivity by streaking them on ABTG plates without or with 20 micro-g/ml fluoroorotate and incubation overnight at 37° C.

Assay [1] has as its system B. subtilis HH263 derived strains ED344 and ED348. The assay is described as follows: FOA sensitivity by streaking on selective MM plates. In kind it is cell-based, Bacillus subtilis. On the procedure:
The resulting strains were denoted ED344 (HH263 amyE::pDG268) and ED348 (HH263 amyE::pED301). ED344 and ED348 were streaked on selective MM plates containing 5 micro-g/ml neomycine, one with 20 micro-g/ml FOA, and one without. The screening plates were incubated overnight at 37° C.

The subject of assay [2] is L. lactis NCDO712 and MG1363. The assay is described as follows: Screening for FOA sensitivity by streaking on SA-glucose plates with FOA. In kind it is cell-based, Lactococcus lactis ssp. cremoris. The procedure:
Lactococcal cultures were grown at 30° C. either in M17 broth (Terzaghi and Sandine, 1975) or in minimal SA-medium (Jensen and Hammer, 1993) supplemented with 0.5% and 1% glucose, respectively. E. coli strains were grown at 37° C. either in Luria-Bertani (LB) broth or in minimal ABTG medium (Clark and Maaløe, 1967). B. subtilis strains were grown at 37° C. either in LB medium or in minimal MM medium. Agar plates were made by adding […] agar to the broth medium. If necessary, the following supplements were added to the different media: orotate at 20 micro-g/ml, uracil at 20 micro-g/ml, 5-fluoroorotate (FOA) at 20 micro-g/ml, erythromycin at 5 micro-g/ml, chloramphenicol at 5 micro-g/ml for lactococci and 20 micro-g/ml for E. coli, ampicillin at 100 micro-g/ml.
QIAGEN™ purified plasmid DNA of pED210 and pCI3440 was introduced into competent NCDO712 and MG1363 cells by electroporation, and transformants harboring either plasmid pED210 or pCI3440 were selected at 30° C. on SR plates supplemented with 5 micro-g/ml chloramphenicol. Transformants harboring either pED210 or pCI3440 were screened for FOA sensitivity by streaking them on SA-glucose plates with 20 micro-g/ml FOA, and incubation overnight at 30° C.

As to `O=C(O)c1[nH]c(=O)[nH]c(=O)c1F` [FOA, 5-fluoroorotate], the “FOA resistance/sensitivity (growth)” value is recorded as “sensitive” with E. coli XL1-Blue (XL1-Blue harbouring pED301 (ysbC), 20 micro-g/ml fluoroorotate, ABTG plates, overnight 37° C.); “resistant” with E. coli XL1-Blue (untransformed E. coli XL1-Blue); “resistant” in assay [1] (ED344 (HH263 amyE::pDG268, control), 20 micro-g/ml FOA, MM plates, overnight 37° C.); “sensitive” in assay [1] (ED348 (HH263 amyE::pED301, ysbC), 20 micro-g/ml FOA, MM plates, overnight 37° C.); “resistant” in assay [1] (untransformed B. subtilis HH263 (168 trpC2)); “resistant” in assay [2] (L. lactis strain ED79.1175 (MG1363 ΔpyrDa ΔpyrDb)). Besides, the “FOA resistance/sensitivity (growth)” value in assay [2] (NCDO712 and MG1363 containing plasmid pED210 (ysbC), 20 micro-g/ml FOA, SA-glucose plates, overnight 30° C.) is on record as “sensitive”; in assay [2] (NCDO712 and MG1363 containing vector pCI3440 (control), 20 micro-g/ml FOA, SA-glucose plates, overnight 30° C.), “resistant”; in assay [2] (untransformed L. lactis NCDO712 and MG1363), “resistant”.
